Experimental findings from ChEMBL document CHEMBL3045074, “Synthesis and anticonvulsant activity of novel quinazolin-4(3H)-one derived pyrazole analogs” (Med Chem Res, 2013) are described below.

Data set [1] has as its system Mus musculus. The data set can be described thus: Anticonvulsant activity in Swiss albino Mus musculus (mouse) assessed as protection against subcutaneous pentylenetetrazole-induced seizure at 300 mg/kg, ip after 4 hr. Also noted: dose 300 mg/kg. The class given is functional, organism-based.
In data set [2] the test system is Mus musculus. Put plainly: Anticonvulsant activity in Swiss albino Mus musculus (mouse) assessed as protection against maximal electroshock-induced seizures at 300 mg/kg, ip after 4 hr. Also noted: dose 300 mg/kg. Format: functional, organism-based. Background: In the maximal electroshock model the usual endpoint is tonic extension of the hind limbs.
In data set [3] the test system is Rattus norvegicus. Put plainly: Anticonvulsant activity in Wistar Rattus norvegicus (rat) assessed as protection against maximal electroshock-induced seizures at 30 mg/kg, po after 0.5 hr. The class given is functional.
For data set [4], the system named is Rattus norvegicus. The data set can be described thus: Anticonvulsant activity in Wistar Rattus norvegicus (rat) assessed as protection against maximal electroshock-induced seizures at 30 mg/kg, po after 1 hr. The class given is functional.
The subject of data set [5] is Rattus norvegicus. The data set can be described thus: Neurotoxicity in Wistar Rattus norvegicus (rat) assessed as minimal motor impairment at 30 mg/kg, po after 0.25 to 4 hr by rotorod test. The class given is toxicity, organism-based. Also noted: dose 30 mg/kg, route oral. The conditions noted are these: in vivo. (In general: The rotarod test checks motor coordination on a turning rod.)

Data set [6] concerns Mus musculus. The data set can be described thus: Anticonvulsant activity in Swiss albino Mus musculus (mouse) assessed as protection against subcutaneous pentylenetetrazole-induced seizure at 300 mg/kg, ip after 0.5 hr. Also noted: dose 300 mg/kg. Format: functional, organism-based.
The subject of data set [7] is Mus musculus. The data set can be described thus: Neurotoxicity in Swiss albino Mus musculus (mouse) assessed as minimal motor impairment at 100 mg/kg, ip after 0.5 hr by rotorod test. The class given is toxicity, organism-based. Also noted: dose 100 mg/kg, route intraperitoneal. To be noted: in vivo.
Data set [8] deals with Rattus norvegicus. The data set can be described thus: Anticonvulsant activity in Wistar Rattus norvegicus (rat) assessed as protection against maximal electroshock-induced seizures at 30 mg/kg, po after 2 hr. The class given is functional.
Data set [9] deals with Mus musculus. The data set can be described thus: Anticonvulsant activity in Swiss albino Mus musculus (mouse) assessed as protection against maximal electroshock-induced seizures at 30 mg/kg, ip after 0.5 hr. Format: functional, organism-based. Also noted: dose 30 mg/kg.
For data set [10], the system named is Rattus norvegicus. The data set can be described thus: Anticonvulsant activity in Wistar Rattus norvegicus (rat) assessed as protection against maximal electroshock-induced seizures at 30 mg/kg, po after 4 hr. Format: functional.
Data set [11] deals with Rattus norvegicus. The data set can be described thus: Anticonvulsant activity in Wistar Rattus norvegicus (rat) assessed as protection against maximal electroshock-induced seizures at 30 mg/kg, po after 0.25 hr. The class given is functional.
Data set [12] deals with Mus musculus. The data set can be described thus: Neurotoxicity in Swiss albino Mus musculus (mouse) assessed as minimal motor impairment at 300 mg/kg, ip after 4 hr by rotorod test. Format: toxicity, organism-based. Also noted: dose 300 mg/kg, route intraperitoneal. The conditions noted are these: in vivo.
Data set [13] concerns Mus musculus. Put plainly: Anticonvulsant activity in Swiss albino Mus musculus (mouse) assessed as protection against maximal electroshock-induced seizures at 300 mg/kg, ip after 0.5 hr. The class given is functional, organism-based. Details: dose 300 mg/kg.
The subject of data set [14] is Mus musculus. Put plainly: Neurotoxicity in Swiss albino Mus musculus (mouse) assessed as minimal motor impairment at 300 mg/kg, ip after 0.5 hr by rotorod test. The class given is toxicity, organism-based. Also noted: dose 300 mg/kg, route intraperitoneal. The conditions noted are these: in vivo.
The test system of data set [15] is Mus musculus. Put plainly: Anticonvulsant activity in Swiss albino Mus musculus (mouse) assessed as protection against maximal electroshock-induced seizures at 100 mg/kg, ip after 4 hr. The class given is functional, organism-based. Details: dose 100 mg/kg.
For data set [16], the system named is Mus musculus. The data set can be described thus: Anticonvulsant activity in Swiss albino Mus musculus (mouse) assessed as protection against subcutaneous pentylenetetrazole-induced seizure at 100 mg/kg, ip after 0.5 hr. The class given is functional, organism-based. Details: dose 100 mg/kg.
Data set [17] has as its system Mus musculus. The data set can be described thus: Anticonvulsant activity in Swiss albino Mus musculus (mouse) assessed as protection against maximal electroshock-induced seizures at 100 mg/kg, ip after 0.5 hr. Format: functional, organism-based. Also noted: dose 100 mg/kg.

Activity calls are given as the source filed them. No cut-off for these calls is given here.

In the case of `Cc1nc2ccccc2c(=O)n1-c1ccc(C(=O)N2N=C(c3ccccc3)CC2c2ccc(O)cc2)cc1` (stereo not drawn), the outcome in the data set with Mus musculus [1], in the data set with Mus musculus [2], in the data set on Mus musculus [6] and in the data set with Mus musculus [9] was Active. Besides, the Activity was 50% in the data set with Rattus norvegicus [3]; 50% in the data set on Rattus norvegicus [4]; “Non-toxic” in the data set on Rattus norvegicus [5]; “Toxic” in the data set with Mus musculus [7]; 100% in the data set on Rattus norvegicus [8]; 100% in the data set with Rattus norvegicus [10]. In addition, the Activity in the data set on Rattus norvegicus [11] is reported as 25%; with Mus musculus [12], “Toxic”.
For the molecule `Cc1ccc(C2CC(c3ccccc3)=NN2C(=O)c2ccc(-n3c(-c4ccccc4)nc4ccccc4c3=O)cc2)cc1` (stereo not drawn), the result with Mus musculus [1], in the data set with Mus musculus [2] and in the data set with Mus musculus [6] was inactive. Moreover, in the data set with Mus musculus [13], the outcome was Active.
Turning to `Cc1nc2c(Br)cc(Br)cc2c(=O)n1-c1ccc(C(=O)N2N=C(c3ccccc3)CC2c2ccc(N(C)C)cc2)cc1` (stereo not drawn), the outcome in the data set with Mus musculus [1] was inactive. The Activity in the data set with Rattus norvegicus [3] is given as 50%; with Rattus norvegicus [4], 25%; in the data set with Mus musculus [14], “Toxic”; in the data set on Rattus norvegicus [5] it was “Non-toxic”; with Rattus norvegicus [8], 0%; in the data set on Rattus norvegicus [10], 0%. Further, the Activity with Rattus norvegicus [11] is on record as 0%; in the data set with Mus musculus [12], “Toxic”. Further, the result in the data set with Mus musculus [6], in the data set with Mus musculus [9] and with Mus musculus [15] was Active.
Regarding `Cc1nc2ccccc2c(=O)n1-c1ccc(C(=O)N2N=C(c3ccccc3)CC2c2ccc(Cl)cc2)cc1` (stereo not drawn), the result in the data set with Mus musculus [1], in the data set with Mus musculus [16], in the data set on Mus musculus [9] and with Mus musculus [15] was Active. In addition, the Activity in the data set with Rattus norvegicus [3] is recorded as 50%; with Rattus norvegicus [4], 50%; in the data set with Mus musculus [14], “Toxic”; in the data set with Rattus norvegicus [5], “Non-toxic”; with Rattus norvegicus [8], 75%; with Rattus norvegicus [10], 75%. In addition, the Activity in the data set with Rattus norvegicus [11] is reported as 25%; in the data set with Mus musculus [12], “Non-toxic”.
`O=C(c1ccc(-n2c(-c3ccccc3)nc3ccccc3c2=O)cc1)N1N=C(c2ccccc2)CC1c1ccc(Cl)cc1` (stereo not drawn): in the data set on Mus musculus [1], the outcome was inactive. Besides, the outcome with Mus musculus [2], in the data set with Mus musculus [17] and in the data set on Mus musculus [6] was Active. Besides, the values for the Activity result with Mus musculus [14] and in the data set on Mus musculus [12] were “Non-toxic” and “Toxic”, respectively.
For `Cc1ccc(C2CC(c3ccccc3)=NN2C(=O)c2ccc(-n3c(C)nc4ccccc4c3=O)cc2)cc1` (stereo not drawn), the result in the data set with Mus musculus [1], with Mus musculus [2], in the data set with Mus musculus [17] and in the data set with Mus musculus [16] was Active. The Activity with Rattus norvegicus [3] is reported as 50%; in the data set on Rattus norvegicus [4] it was 50%; with Mus musculus [14], “Non-toxic”; in the data set with Rattus norvegicus [5] it was “Non-toxic”; with Rattus norvegicus [8], 75%; in the data set on Rattus norvegicus [10] it was 75%. For the same molecule, the Activity was 25% in the data set with Rattus norvegicus [11] and “Non-toxic” in the data set on Mus musculus [12].
Take `COc1ccc(C2CC(c3ccccc3)=NN2C(=O)c2ccc(-n3c(C)nc4c(Br)cc(Br)cc4c3=O)cc2)cc1` (stereo not drawn): the outcome in the data set with Mus musculus [1] was inactive. The outcome in the data set with Mus musculus [2], in the data set with Mus musculus [17] and with Mus musculus [6] was Active. Also, the Activity result with Mus musculus [14] and in the data set on Mus musculus [12] was “Toxic” each time.
On to `CCC1(C)CC(=O)NC1=O` (stereo not drawn) [ETHOSUXIMIDE], for which the result in the data set on Mus musculus [1] and with Mus musculus [16] was Active. Also, the result with Mus musculus [2] and in the data set with Mus musculus [13] was inactive. The Activity entry with Mus musculus [14] and in the data set on Mus musculus [12] was “Non-toxic” in each case.
`Cc1nc2ccccc2c(=O)n1-c1ccc(C(=O)N2N=C(c3ccccc3)CC2c2ccc(N(C)C)cc2)cc1` (stereo not drawn): the outcome with Mus musculus [1], in the data set on Mus musculus [2], with Mus musculus [17] and with Mus musculus [16] was Active. Also, the Activity is recorded as 0% in the data set with Rattus norvegicus [3]; 0% with Rattus norvegicus [4]; “Non-toxic” in the data set on Mus musculus [14]; “Non-toxic” in the data set on Rattus norvegicus [5]; 25% with Rattus norvegicus [8]; 50% with Rattus norvegicus [10]. Further, the results for the Activity with Rattus norvegicus [11] and in the data set on Mus musculus [12] were 0% and “Non-toxic”, respectively.
For `Cc1nc2c(Br)cc(Br)cc2c(=O)n1-c1ccc(C(=O)N2N=C(c3ccccc3)CC2c2ccc(Cl)cc2)cc1` (stereo not drawn), the outcome in the data set with Mus musculus [1], in the data set with Mus musculus [16], in the data set with Mus musculus [9] and with Mus musculus [15] was Active. The Activity in the data set with Rattus norvegicus [3] is given as 50%; in the data set on Rattus norvegicus [4], 50%; in the data set with Mus musculus [14], “Non-toxic”; in the data set with Rattus norvegicus [5] it was “Non-toxic”; in the data set on Rattus norvegicus [8] it was 100%; with Rattus norvegicus [10], 100%. Further, the Activity was 25% with Rattus norvegicus [11] and “Non-toxic” with Mus musculus [12].
Turning to `COc1ccc(C2CC(c3ccccc3)=NN2C(=O)c2ccc(-n3c(-c4ccccc4)nc4ccccc4c3=O)cc2)cc1` (stereo not drawn), the result in the data set on Mus musculus [1] and in the data set with Mus musculus [2] was Active. Further, the result in the data set on Mus musculus [6] and with Mus musculus [13] was inactive.
As to `Cc1nc2c(Br)cc(Br)cc2c(=O)n1-c1ccc(C(=O)N2N=C(c3ccccc3)CC2c2ccc(O)cc2)cc1` (stereo not drawn), the result in the data set on Mus musculus [1], in the data set with Mus musculus [6], in the data set with Mus musculus [9] and with Mus musculus [15] was Active. Besides, the Activity is on record as 50% in the data set with Rattus norvegicus [3]; 50% in the data set with Rattus norvegicus [4]; “Toxic” with Mus musculus [14]; “Non-toxic” in the data set with Rattus norvegicus [5]; 100% in the data set on Rattus norvegicus [8]; 100% in the data set with Rattus norvegicus [10]. Moreover, the Activity is given as 25% with Rattus norvegicus [11] and “Non-toxic” in the data set with Mus musculus [12].
As to `O=C(c1ccc(-n2c(-c3ccccc3)nc3ccccc3c2=O)cc1)N1N=C(c2ccccc2)CC1c1ccc(O)cc1` (stereo not drawn), the outcome in the data set on Mus musculus [1] and in the data set on Mus musculus [17] was Active. The outcome with Mus musculus [2] and with Mus musculus [6] was inactive. Besides, the Activity entry in the data set with Mus musculus [14] and in the data set with Mus musculus [12] was “Non-toxic” throughout.
Regarding `O=C(c1ccc(-n2c(-c3ccccc3)nc3ccccc3c2=O)cc1)N1N=C(c2ccccc2)CC1c1cccc([N+](=O)[O-])c1` (stereo not drawn), the outcome with Mus musculus [1], with Mus musculus [2] and in the data set on Mus musculus [13] was inactive. In the data set on Mus musculus [6], the outcome was Active.
Regarding `Cc1nc2ccccc2c(=O)n1-c1ccc(C(=O)N2N=C(c3ccccc3)CC2c2cccc([N+](=O)[O-])c2)cc1` (stereo not drawn), in the data set with Mus musculus [1], the result was Active. Further, the result in the data set with Mus musculus [2], in the data set on Mus musculus [6] and in the data set on Mus musculus [13] was inactive.
Turning to `CN(C)c1ccc(C2CC(c3ccccc3)=NN2C(=O)c2ccc(-n3c(-c4ccccc4)nc4ccccc4c3=O)cc2)cc1` (stereo not drawn), the outcome in the data set with Mus musculus [1], in the data set with Mus musculus [6] and in the data set on Mus musculus [13] was inactive. Besides, the outcome with Mus musculus [2] was Active.
For the molecule `COc1ccc(C2CC(c3ccccc3)=NN2C(=O)c2ccc(-n3c(C)nc4ccccc4c3=O)cc2)cc1` (stereo not drawn), the result in the data set with Mus musculus [1] and in the data set on Mus musculus [2] was inactive. Also, the Activity entry in the data set with Mus musculus [14] is listed as “Non-toxic”; with Mus musculus [12], “Toxic”. The outcome with Mus musculus [17] and with Mus musculus [6] was Active.
Take `Cc1nc2c(Br)cc(Br)cc2c(=O)n1-c1ccc(C(=O)N2N=C(c3ccccc3)CC2c2cccc([N+](=O)[O-])c2)cc1` (stereo not drawn): the result in the data set on Mus musculus [1] was Active. Further, the outcome in the data set on Mus musculus [2], in the data set on Mus musculus [6] and in the data set on Mus musculus [13] was inactive.
